In US8252954B2, “Processes for the preparation of calixarene derivatives” (The Curators of The University of Missouri, priority 2007, dated 2012):

Columns and labels:
[1] = tested on: Peripheral blood mononuclear cells (PBMC); experiment: Cell viability assay (MTS assay) on PBMC; type: cell-based, human; details: two fold dilutions starting from 10^−4M, FIG. 8 / FIG. 9
Procedure: Cytotoxicity of these calixarenes were conducted using Peripheral Blood Mononucleus Cell line (PBMC) which were extracted from subjects blood (50 ml sample). Each calixarene compound was tested on three subjects out of a pool of 5 people (all caucasian females of 20-25 years of age). The extracted cell content represent 1% of the blood sample and comprised of Lymphocyte (60%) and monocytes (10-15%). The experiment was conducted by incubating the cells in a 96 well plate in triplicate with the calixarenes for 24 hours at different concentrations at an estimated concentration of 100000 cells per well.
A pipeline was designed to obtain reliable preliminary toxicology data in vitro. The pipeline was designed to allow testing of any particles of interest within a short time frame. […]
PBMC were harvested using the Ficoll method. […] The cells are then suspended in freezing media (10% DMSO in HIFCS) at 10 million cells per ml and stored as 1 ml aliquots in liquid nitrogen until it is ready for use. […]
CellTitre 96© Aqueous One Solution Cell Proliferation Assay was used to measure cell viability. […] The PHA was added to trigger activation of lymphocytes which was hypothesised that it may alter the reading of the MTS assay. […] The plate is further incubated for another 4 hours and is read through a spectrophotometer at 490 nm. […]

[2] = tested on: Peripheral blood mononuclear cells (PBMC): lymphocytes and monocytes; experiment: 5 colour flow cytometry of PBMC after exposure to calixarenes; type: cell-based, human; details: 24 hours, 10^-4M, 2.5×10^-5M, 3.13×10^-6M
Procedure: A 5 colour flow cytometry based assay was done to complement the MTS assay to provide a better snapshot of the toxicology profile of the calixarenes. Four concentrations from the MTS assay graph results (Control, 1, 1/4 dilution and 1/32 dilution) were chosen to illustrate the differences in cell profiles after the exposure of the calixarenes. 500,000 cells in 0.5 ml was cultured with 50 μL of calixarenes in polypropylene tubes (BD Falcon, Sarstedt) for 24 hours at 37° C., 5% CO2, 10° angle with the lid loosely closed. Polypropylene tube cultures were chosen as it provides better yield of monocytes.
After the 24 hour incubation, a cell count was performed to ensure there were at least 200,000 cells in each sample. The cells were centrifuged at 400G for 8 minutes and washed twice with flow buffer (10% bovine serum albumin in 1×PBS) by centrifugation at 400G for 8 minutes. An antibody cocktail of 10 μL annexin V FITC (marker used to detect apoptosis of cells), 5 μL CD3 APC (marker for detection of T-cells), 2.5 μL CD14 PECy7 (marker for detection of monocytes), 5 μL HLA-DR PE (marker for detection of cell activation) and 5 μL 7-AAD (marker to detect cell death) in each tube was prepared. The cells were resuspended in 200 μL of 1× Annexin V binding buffer. 100 μL of the resuspended cells were added to flow tubes containing the antibody cocktail and was incubated at room temperature in the dark for at least 15 minutes. The samples were then read using BD FACS Canto flow cytometer within an hour of antibody incubation. The experiment was replicated in triplicates using PBMC from different individuals.
Lymphocyte and monocyte population characteristics are summarised in the graph in FIG. 8. Lymphocyte and monocyte population numbers are based on total population while apoptotic cells, dead cells, live cells etc are based on their respective populations. Lymphocytes normally make up 60% of total population. […] However, this is most likely due to total lysis of cells, which cannot be detected by dead cell marker. Monocytes normally make up 10-15% of total population. The culturing process seems to cause most monocytes to be apoptotic due to their fragile nature.
Phosphonated calix[5]arene was tested with flow cytometry at the following concentrations; 10^-4M, 2.5×10^-5M (1 in 4 dilution) and 3.13×10^-6M (1 in 32 dilution). Lymphocyte and monocyte population characteristics are summarised in the graph in FIG. 9. Lymphocyte and monocyte population numbers are based on total population while apoptotic cells, dead cells, live cells etc are based on their respective populations. Lymphocytes normally make up 60% of total population. […] However, this is most likely due to total lysis of cells, which cannot be detected by dead cell marker. Monocytes normally make up 10-15% of total population. Culturing process seems to cause most monocytes to be apoptotic due to their fragile nature and this finding is in line with our literature review. There is a decline in monocyte numbers with increasing concentration of this calixarene.

[3] = DMSO, room temperature, FIG. 5

| Compound | toxicity judged from cell viability (absorbance) [1] | monocyte numbers with increasing concentration [2] | proportion of dead lymphocytes with increasing concentration [2] | time over which nano-rafts dissociate into solvated monomeric units [3] [h] | live monocytes population numbers with increasing concentration [2] |
| --- | --- | --- | --- | --- | --- |
| 5,11,17,23-Tetra(dihydroxyphosphoryl)-25,26,27,28-tetrahydroxycalix[4]arene [phosphonated calix[4]arene] | no significant sign of toxicity | slight decline | seems to decline | 36 |  |
| O=P(O)(O)c1cc2c(O)c(c1)Cc1cc(P(=O)(O)O)cc(c1O)Cc1cc(P(=O)(O)O)cc(c1O)Cc1cc(P(=O)(O)O)cc(c1O)Cc1cc(P(=O)(O)O)cc(c1O)C2 [phosphonated calix[5]arene, 5,11,17,23,29-Penta(dihydroxyphosphoryl)-31,32,33,34,35-pentahydroxycalix[5] arene] | less toxicity with this calixarene than with sulphonated calixarenes | decline | seems to decline |  | seems to increase |
